Source: article PMC12723449, “From Pharmacophore to Warhead: NAD^+‐Targeting Triazoles as Mechanism‐Based Sirtuin Inhibitors” (Angewandte Chemie (International Ed. in English), 2025)

Tests used:
SIRT2 [1] = target: T1, SIRT2 (Homo sapiens, UniProt Q8IXJ6); experiment: Jump-dilution assay; type: biochemical
T1 construct: For assay experiments, strep-tagged human SIRT1134−747 and SIRT256-356 were expressed and purified as previously; Strep-tag; made in house; host or cells: E. coli BL21 Star (DE3)
T1 sequence (Q8IXJ6 56-356 limits assumed): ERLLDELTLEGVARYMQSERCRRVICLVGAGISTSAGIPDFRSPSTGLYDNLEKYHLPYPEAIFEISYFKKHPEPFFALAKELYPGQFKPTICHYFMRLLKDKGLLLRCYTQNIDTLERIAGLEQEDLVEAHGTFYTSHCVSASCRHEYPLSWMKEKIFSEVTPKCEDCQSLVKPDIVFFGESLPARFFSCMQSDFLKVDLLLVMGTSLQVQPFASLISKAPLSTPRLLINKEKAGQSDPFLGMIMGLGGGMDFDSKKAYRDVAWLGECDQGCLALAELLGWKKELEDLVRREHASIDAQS

SIRT2 [2] = target: T1, SIRT2; experiment: CE-ESI-MS analysis of adducts formed in vitro; type: biochemical; settings: SIRT2 incubated with NAD+ and compound, thermal denaturation
Experimental: Capillary electrophoresis–electrospray ionization–mass spectrometry (CE-ESI-MS) analysis of […]
Analysis of the enzymatic products were performed using a capillary electrophoresis coupled to mass spectrometry method (CE-MS) described first in the separation of inositol (pyro)phosphates.[11] CE (Agilent 7100 CE system) was coupled to a time-of-flight mass spectrometry Agilent 6545 system and ionization was performed with a commercially available Agilent Jet Stream (AJS) electrospray ionization (ESI) source. An Agilent liquid coaxial interface was used and the ionization spray was stabilized with a water-isopropanol (1:1 v/v) mixture as sheath liquid. The sheath liquid was pumped with an Agilent 1200 isocratic LC pump, using a 1:100 splitter and resulting in a flow of 1.5 µl/min.
A mixture of SIRT256-356 (final concentration of 11 mg/mL) in SEC buffer, compound 1 or 7 (3.33 mM of inhibitor with a final DMSO concentration of 3.33 % (v/v)) and NAD+ (final concentration of 10 mM) were incubated for 90 min and centrifuged for 5 min to remove inhibitor precipitate. Following SIRT2 denaturation at 65 °C for 1 min and centrifugation for 5 min to remove precipitated protein, 20 nL of each sample was injected under 100 mbar pressure for 20 s. […] Analytes were detected in negative ionization mode, a capillary voltage of -3000 V and an ESI spray current of 2.1 µA. […]

α‐tubulin = system: α‐tubulin; design: method as in PMID 35441145; settings: cited from earlier work

| SMILES | SIRT2 enzymatic activity after jump dilution (SIRT2 [1]; preincubation of SIRT2 with compound and NAD+ (30 min), 1:100 dilution to 4 nM) [%] | SIRT2 enzymatic activity after jump dilution (SIRT2 [1]; without NAD+ preincubation, 1:100 dilution) [%] | ADPR adduct detected in solution by CE-ESI-MS (SIRT2 [2]) | α-tubulin hyperacetylation (α‐tubulin) |
| --- | --- | --- | --- | --- |
| CCCCCCCCCCCCc1cn(CCCC[C@H](NC(=O)[C@H](CCCCN)NC(=O)[C@@H]2CCCN2C(=O)[C@H](CC(C)C)NC(=O)[C@H](C)NC(=O)[C@H](CCC(=O)O)NC(C)=O)C(=O)N[C@H](C(=O)NCC(=O)NCC(N)=O)[C@@H](C)O)nn1 [Compound 6] | 13 | 72 |  |  |
| COCCn1cc(COc2cccc(Cc3cnc(NC(=O)CSc4nc(C)cc(C)n4)s3)c2)nn1 [Compound 1, reference compound] |  |  | undetectable | pronounced α‐tubulin hyperacetylation |
| Cc1cc(C)nc(SCC(=O)Nc2ncc(Cc3cccc(OCc4c[nH]nn4)c3)s2)n1 [Compound 7] |  |  | confirmed release of 7–ADPR |  |
